Laboratory results reported in patent publication US6545052B2, “Methods and compositions for inhibiting free radical polymerization in skin and hair” (Fan Tech, Ltd., priority 2000, dated 2003).

Experiment: free radical inhibition assay: inhibition of polymerization of acrylic acid to polyacrylic acid
Conditions: for % Polymerization (after 3 hours at 85° C.): 30% acrylic acid in water, 200 ml, 0.6 ml of 1% inhibitor solution, initiated with azobisisobutyronitrile, remaining acrylic acid by iodine value
Description: A presently preferred method for determining the free radical inhibitory capacity of a compound is based on the ability of such a compound to inhibit free radical polymerization of acrylic acid to polyacrylic acid. […] As will be appreciated, the amount of polyacrylic acid formed is inversely related to the amount of acrylic acid (i.e., monomer) remaining in the reaction mixture at the end of the assay. The amount of acrylic acid may be routinely determined by measuring the iodine value of the reaction mixture or by other methods known in the art for determinating unsaturation. A well-known free radical inhibitor compound such as hydroquinone mono methyl ether (HQMME) may be used as a standard inhibitor compound in the assay.
Into each of three 250 ml beakers, labeled “1,” “2,” and “3” respectively, is added 200 ml of a 30% solution of acrylic acid (in water). One-tenth gram of 1,3-di(3-methoxybenzyl)thiourea was dissolved in 9.9 grams of isopropyl alcohol to give a 1% (w/w) solution of the free radical inhibitor compound. […] One-tenth gram of azobisisobutyronitrile (a free radical initiator) was dissolved in 9.9 grams of isopropyl alcohol to provide a 1% solution of the free radical initiator. To beaker 1, containing 200 ml of the acrylic acid solution was added 0.6 ml of the 1% solution of 1,3-di(3-methoxybenzyl)thiourea. To beaker 2, containing 200 ml of the acrylic acid solution was added 0.6 ml of the 1% solution of hydroquinone mono methyl ether. To beaker 3 was added 0.6 ml of isopropyl alcohol (no inhibitor). […] After 3 hours, the beakers were removed from the hot plate to stop the reaction from progressing further, and the amount of acrylic acid which remained in the reaction mixture was determined by measuring the iodine value of an aliquot of the reaction mixture using the A.O.C.S. Method Tg 1a-64T in Official Methods And Recommended Practices Of The AOCS, by American Oil Chemists' Society, Champaign, Ill.

Row | SMILES | % Polymerization (after 3 hours at 85° C.) | inhibition of the free radical polymerization reaction (in words) (assay of Example 10, 85° C., 3 hours)
1 | COc1cccc(CNC(=S)NCc2cccc(OC)c2)c1 [1,3-di(3-methoxybenzyl)thiourea, 1,3-di-(3-methoxybenzyl) thiourea] | 48.6% | strongly inhibited
2 | COc1ccc(O)cc1 [hydroquinone mono methyl ether, reference compound] | 78.6% | –
